Assays:
[1] = target: T1, CvTAm (Chromobacterium violaceum, UniProt Q7NWG4); assay: HPLC conversion; format: biochemical; details: amine donor; pyruvate acceptor, PLP, HEPES pH 7.5, 37 °C, 6 h
T1 construct: gene CV_2025; recombinant in E. coli BL21(DE3)

[2] = target: T2, EfTyrDC (Enterococcus faecalis, UniProt Q838D6); assay: HPLC conversion; format: biochemical; details: PLP, HEPES pH 7.5, 37 °C, 6 h; coupled with CvTAm
T2 construct: gene tdc; recombinant in E. coli BL21(DE3)

[3] = test system: NCCc1ccc(O)cc1; assay: cells, lysate or membranes; format: cell-based, Candidatus Nitrosopumilus salarius; details: apparent constant; N201S variant; copper enzyme; assay details in supplement

T2 sequence (Q838D6 whole entry): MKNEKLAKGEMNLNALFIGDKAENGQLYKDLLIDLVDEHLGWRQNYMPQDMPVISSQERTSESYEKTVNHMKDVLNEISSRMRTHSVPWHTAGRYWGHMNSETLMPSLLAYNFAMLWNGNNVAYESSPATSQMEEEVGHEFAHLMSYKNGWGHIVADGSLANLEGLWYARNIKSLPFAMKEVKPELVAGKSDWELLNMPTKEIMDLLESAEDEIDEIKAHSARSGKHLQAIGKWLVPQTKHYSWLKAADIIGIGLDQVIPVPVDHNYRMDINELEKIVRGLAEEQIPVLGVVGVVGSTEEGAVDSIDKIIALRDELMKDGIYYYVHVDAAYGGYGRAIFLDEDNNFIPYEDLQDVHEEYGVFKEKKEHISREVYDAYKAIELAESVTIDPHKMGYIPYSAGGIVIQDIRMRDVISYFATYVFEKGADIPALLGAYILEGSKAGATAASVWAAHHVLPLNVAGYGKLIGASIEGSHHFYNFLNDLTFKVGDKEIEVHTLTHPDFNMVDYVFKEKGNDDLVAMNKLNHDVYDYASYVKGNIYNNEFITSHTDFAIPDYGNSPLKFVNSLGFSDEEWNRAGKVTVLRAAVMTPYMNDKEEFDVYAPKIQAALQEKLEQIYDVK
T1 sequence (Q7NWG4 entry or part of it): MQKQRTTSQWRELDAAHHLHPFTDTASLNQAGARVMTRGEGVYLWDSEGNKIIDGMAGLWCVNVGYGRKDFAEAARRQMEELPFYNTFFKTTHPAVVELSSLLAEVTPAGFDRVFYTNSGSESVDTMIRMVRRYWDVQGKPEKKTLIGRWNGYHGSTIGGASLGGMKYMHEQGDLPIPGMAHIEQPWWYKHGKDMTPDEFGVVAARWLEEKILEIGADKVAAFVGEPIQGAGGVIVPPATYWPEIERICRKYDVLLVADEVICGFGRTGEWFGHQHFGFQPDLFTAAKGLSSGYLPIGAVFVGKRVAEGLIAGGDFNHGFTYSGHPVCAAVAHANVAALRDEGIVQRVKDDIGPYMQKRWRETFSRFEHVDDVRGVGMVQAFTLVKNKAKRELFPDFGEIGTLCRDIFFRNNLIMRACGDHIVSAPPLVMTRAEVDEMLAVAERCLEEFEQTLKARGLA

Question: How did the HPLC conversion [1] turn out when NCCCc1ccccc1 [compound 14, 3-phenyl-1-propylamine] was run?
Answer: All of the selected substrates were readily accepted by EfTyrDC and CvTAm

Question: With N[C@@H](Cc1cccc(O)c1)C(=O)O [compound 9, meta-L-tyrosine] as the molecule, how does the HPLC conversion [2] read?
Answer: All of the selected substrates were readily accepted by EfTyrDC and CvTAm

Question: N[C@@H](Cc1ccc(O)c(Cl)c1)C(=O)O [compound 12, 3-Cl-L-tyrosine] was tested. Which HPLC conversion [2] did it give?
Answer: All of the selected substrates were readily accepted by EfTyrDC and CvTAm

Question: For “CnTYR (Candidatus Nitrosopumilus salarius BD31; N201S)”, which Km [3] is on record?
Answer: 1780 µM

Question: What about the kcat [3] of the same molecule?
Answer: 197.5 s⁻¹
